Experimental data taken from PubChem BioAssay AID248 (DTP/NCI, 2004).
Several values for one entry are separate records, joined by “and”; a condition that tells them apart may be missing. Equal values may be shown once. Inconclusive results and toxic doses are left out.

Tested on: L1210 leukemia ip in BDF1 mice, survival T/C
Assay: NCI In Vivo Anticancer Drug Screen. Data for tumor model L1210 Leukemia (intraperitoneal) in B6D2F1 (BDF1) mice
Conditions: higher = longer survival
Method in brief: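 Transplanted-tumor mice were given test agent; controls received vehicle only. Survival readings from the two groups were divided (treated over control).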

[1] = endpoint: mean survival time, dose: 100.0 mg/kg/injection, schedule: Q04DX003 (ip), vehicle: Klucel (hydroxypropylcellulose) (HPC)
[2] = endpoint: mean survival time, dose: 200.0 mg/kg/injection, schedule: Q04DX003 (ip), vehicle: Klucel (hydroxypropylcellulose) (HPC)
[3] = endpoint: mean survival time, dose: 400.0 mg/kg/injection, schedule: Q04DX003 (ip), vehicle: Klucel (hydroxypropylcellulose) (HPC)
[4] = endpoint: mean survival time, dose: 100.0 mg/kg/injection, schedule: Q01DX001 (ip), vehicle: saline
[5] = endpoint: mean survival time, dose: 200.0 mg/kg/injection, schedule: Q01DX001 (ip), vehicle: saline
[6] = endpoint: mean survival time, dose: 400.0 mg/kg/injection, schedule: Q01DX001 (ip), vehicle: saline
[7] = endpoint: mean survival time, dose: 100.0 mg/kg/injection, schedule: Q04DX002 (ip), vehicle: Klucel (hydroxypropylcellulose) (HPC)
[8] = endpoint: mean survival time, dose: 200.0 mg/kg/injection, schedule: Q04DX002 (ip), vehicle: Klucel (hydroxypropylcellulose) (HPC)
[9] = endpoint: mean survival time, dose: 400.0 mg/kg/injection, schedule: Q04DX002 (ip), vehicle: Klucel (hydroxypropylcellulose) (HPC)
[10] = endpoint: mean survival time, dose: 100.0 mg/kg/injection, schedule: Q01DX001 (ip), vehicle: carboxymethylcellulose (CMC)
[11] = endpoint: mean survival time, dose: 200.0 mg/kg/injection, schedule: Q01DX001 (ip), vehicle: carboxymethylcellulose (CMC)
[12] = endpoint: mean survival time, dose: 400.0 mg/kg/injection, schedule: Q01DX001 (ip), vehicle: carboxymethylcellulose (CMC)

CCCCCCCCCCC(CCCCCCCCCC)CC1CCCCC1
T/C (endpoint: mean survival time, dose: 100.0 mg/kg/injection, schedule: Q01DX001 (ip), vehicle: saline + alcohol): 102 % of control | T/C (endpoint: mean survival time, dose: 200.0 mg/kg/injection, schedule: Q01DX001 (ip), vehicle: saline + alcohol): 94 % of control | T/C (endpoint: mean survival time, dose: 400.0 mg/kg/injection, schedule: Q01DX001 (ip), vehicle: saline + alcohol): 100 % of control

COc1ccc(CSC(=S)NNc2ccccc2)cc1
T/C (endpoint: mean survival time, dose: 100.0 mg/kg/injection, schedule: Q01DX009 (ip), vehicle: Klucel (hydroxypropylcellulose) (HPC)): 96 % of control | T/C [1]: 98 % of control | T/C (endpoint: mean survival time, dose: 200.0 mg/kg/injection, schedule: Q01DX009 (ip), vehicle: Klucel (hydroxypropylcellulose) (HPC)): 86 % of control | T/C [2]: 93 % of control | T/C (endpoint: mean survival time, dose: 400.0 mg/kg/injection, schedule: Q01DX009 (ip), vehicle: Klucel (hydroxypropylcellulose) (HPC)): 87 % of control | T/C [3]: 90 % of control

[O-][n+]1ccc(-c2ccccc2)cc1
T/C (endpoint: mean survival time, dose: 100.0 mg/kg/injection, schedule: Q04DX002 (ip), vehicle: saline): 107 % of control | T/C (endpoint: mean survival time, dose: 200.0 mg/kg/injection, schedule: Q04DX002 (ip), vehicle: saline): 96 % of control

C[S+](C)CCCN
T/C [4]: 105 % of control | T/C (endpoint: mean survival time, dose: 100.0 mg/kg/injection, schedule: Q01DX009 (ip), vehicle: saline): 94 % of control | T/C (endpoint: mean survival time, dose: 100.0 mg/kg/injection, schedule: Q04DX003 (ip), vehicle: saline): 103 % of control | T/C [5]: 110 % of control | T/C (endpoint: mean survival time, dose: 200.0 mg/kg/injection, schedule: Q01DX009 (ip), vehicle: saline): 109 % of control | T/C (endpoint: mean survival time, dose: 200.0 mg/kg/injection, schedule: Q04DX003 (ip), vehicle: saline): 106 % of control | T/C [6]: 105 % of control | T/C (endpoint: mean survival time, dose: 400.0 mg/kg/injection, schedule: Q01DX009 (ip), vehicle: saline): 106 % of control | T/C (endpoint: mean survival time, dose: 400.0 mg/kg/injection, schedule: Q04DX003 (ip), vehicle: saline): 98 % of control

CCOC(=O)c1ccc(Nc2sc(C(=O)c3cccc([N+](=O)[O-])c3)c(N)c2C#N)cc1
T/C [7]: 101 % of control | T/C [8]: 92 % of control | T/C [9]: 92 % of control

CCOC(=O)c1ccc(N=[N+]([O-])c2ccc(C(=O)OCC)cc2)cc1
T/C [7]: 96 % of control | T/C [8]: 96 % of control | T/C [9]: 100 % of control

c1ccc(-c2nc(-c3nccc4ccccc34)oc2-c2ccccc2)cc1
T/C [4]: 97 % of control | T/C [5]: 88 % of control | T/C [6]: 93 % of control

CC1=NN(c2ccccc2)C(=O)C1N=Nc1ccc(S(=O)(=O)Nc2ncccn2)cc1 (configuration not stated)
T/C [10]: 100 % of control | T/C [11]: 94 % of control | T/C [12]: 89 % of control

O=Cc1ccc(O)c(CN2CCCCC2)c1
T/C (endpoint: mean survival time, dose: 6.25 mg/kg/injection, schedule: Q01DX009 (ip), vehicle: saline): 94 % of control | T/C (endpoint: mean survival time, dose: 6.25 mg/kg/injection, schedule: Q04DX003 (ip), vehicle: saline): 100 % of control | T/C (endpoint: mean survival time, dose: 12.5 mg/kg/injection, schedule: Q01DX009 (ip), vehicle: saline): 107 % of control | T/C (endpoint: mean survival time, dose: 12.5 mg/kg/injection, schedule: Q04DX003 (ip), vehicle: saline): 96 % of control | T/C (endpoint: mean survival time, dose: 25.0 mg/kg/injection, schedule: Q01DX009 (ip), vehicle: saline): 96 % of control | T/C (endpoint: mean survival time, dose: 25.0 mg/kg/injection, schedule: Q04DX003 (ip), vehicle: saline): 103 % of control

CC(C)C(=O)c1ccc(Cl)s1
T/C (endpoint: mean survival time, dose: 100.0 mg/kg/injection, schedule: Q04DX003 (sc), vehicle: olive oil, sesame oil, peanut oil): 104 % of control | T/C (endpoint: mean survival time, dose: 200.0 mg/kg/injection, schedule: Q04DX003 (sc), vehicle: olive oil, sesame oil, peanut oil): 107 % of control | T/C (endpoint: mean survival time, dose: 400.0 mg/kg/injection, schedule: Q04DX003 (sc), vehicle: olive oil, sesame oil, peanut oil): 96 % of control

COc1ccc(OC)c(/C=C/c2ccnc3ccccc23)c1
T/C (endpoint: mean survival time, dose: 50.0 mg/kg/injection, schedule: Q01DX001 (ip), vehicle: carboxymethylcellulose (CMC)): 93 % of control | T/C [10]: 96 % of control | T/C [11]: 91 % of control | T/C [12]: 87 % of control

CCOC(=O)N1C(=O)NC(=O)C1c1ccc(Cl)cc1 (configuration not stated)
T/C (endpoint: mean survival time, dose: 50.0 mg/kg/injection, schedule: Q01DX001 (ip), vehicle: saline): 96 % of control | T/C [4]: 112 % of control | T/C [5]: 100 % of control

CC(=O)Nc1ccc(CCc2nc(N)nc(Cl)c2-c2ccc(Cl)cc2)cc1
T/C (endpoint: mean survival time, dose: 75.0 mg/kg/injection, schedule: Q01DX001 (ip), vehicle: saline): 92 % of control | T/C (endpoint: mean survival time, dose: 150.0 mg/kg/injection, schedule: Q01DX001 (ip), vehicle: saline): 87 % of control | T/C (endpoint: mean survival time, dose: 300.0 mg/kg/injection, schedule: Q01DX001 (ip), vehicle: saline): 90 % of control

CCC(=N\O)/C(C)=N/O
T/C [1]: 103 % of control | T/C [2]: 103 % of control | T/C [3]: 100 % of control

O=c1nc(NC(=S)Nc2ccn(C3OC(CO)C(O)C3O)c(=O)n2)ccn1C1OC(CO)C(O)C1O (configuration not stated)
T/C (endpoint: mean survival time, dose: 50.0 mg/kg/injection, schedule: Q01DX001 (ip), vehicle: other): 104 % of control | T/C (endpoint: mean survival time, dose: 50.0 mg/kg/injection, schedule: Q01DX001 (ip), vehicle: water): 103 % of control and 106 % of control and 114 % of control | T/C (endpoint: mean survival time, dose: 100.0 mg/kg/injection, schedule: Q01DX001 (ip), vehicle: other): 110 % of control | T/C (endpoint: mean survival time, dose: 100.0 mg/kg/injection, schedule: Q01DX001 (ip), vehicle: water): 106 % of control | T/C (endpoint: mean survival time, dose: 100.0 mg/kg/injection, schedule: Q01DX005 (ip), vehicle: saline): 168 % of control and 188 % of control | T/C (endpoint: mean survival time, dose: 200.0 mg/kg/injection, schedule: Q01DX001 (ip), vehicle: other): 109 % of control and 116 % of control | T/C [5]: 158 % of control | T/C (endpoint: mean survival time, dose: 200.0 mg/kg/injection, schedule: Q01DX005 (ip), vehicle: saline): 206 % of control and 218 % of control | T/C (endpoint: mean survival time, dose: 400.0 mg/kg/injection, schedule: Q01DX001 (ip), vehicle: other): 193 % of control | T/C [6]: 217 % of control | T/C (endpoint: mean survival time, dose: 400.0 mg/kg/injection, schedule: Q01DX001 (ip), vehicle: water): 171 % of control and 215 % of control | T/C (endpoint: mean survival time, dose: 600.0 mg/kg/injection, schedule: Q01DX001 (ip), vehicle: other): 163 % of control | T/C (endpoint: mean survival time, dose: 800.0 mg/kg/injection, schedule: Q01DX001 (ip), vehicle: saline): 452 % of control | T/C (endpoint: mean survival time, dose: 800.0 mg/kg/injection, schedule: Q01DX001 (ip), vehicle: water): 196 % of control and 177 % of control and 361 % of control | T/C (endpoint: mean survival time, dose: 1600.0 mg/kg/injection, schedule: Q01DX001 (ip), vehicle: water): 368 % of control | T/C (endpoint: median survival time, dose: 12.5 mg/kg/injection, schedule: Q03HX024 (ip), vehicle: saline): 180 % of control | T/C (endpoint: median survival time, dose: 25.0 mg/kg/injection, schedule: Q03HX024 (ip), vehicle: saline): 180 % of control | T/C (endpoint: median survival time, dose: 50.0 mg/kg/injection, schedule: Q03HX024 (ip), vehicle: saline): 295 % of control | T/C (endpoint: median survival time, dose: 100.0 mg/kg/injection, schedule: Q01DX009 (ip), vehicle: saline): 190 % of control | T/C (endpoint: median survival time, dose: 200.0 mg/kg/injection, schedule: Q01DX001 (oral), vehicle: saline): 104 % of control | T/C (endpoint: median survival time, dose: 200.0 mg/kg/injection, schedule: Q01DX009 (ip), vehicle: saline): 152 % of control | T/C (endpoint: median survival time, dose: 200.0 mg/kg/injection, schedule: Q04DX003 (ip), vehicle: saline): 195 % of control | T/C (endpoint: median survival time, dose: 400.0 mg/kg/injection, schedule: Q01DX001 (ip), vehicle: saline): 185 % of control | T/C (endpoint: median survival time, dose: 400.0 mg/kg/injection, schedule: Q01DX001 (oral), vehicle: saline): 104 % of control | T/C (endpoint: median survival time, dose: 400.0 mg/kg/injection, schedule: Q04DX003 (ip), vehicle: saline): 233 % of control | T/C (endpoint: median survival time, dose: 800.0 mg/kg/injection, schedule: Q01DX001 (ip), vehicle: saline): 233 % of control | T/C (endpoint: median survival time, dose: 800.0 mg/kg/injection, schedule: Q01DX001 (oral), vehicle: saline): 100 % of control | T/C (endpoint: median survival time, dose: 800.0 mg/kg/injection, schedule: Q04DX003 (ip), vehicle: saline): 342 % of control | T/C (endpoint: median survival time, dose: 1600.0 mg/kg/injection, schedule: Q01DX001 (ip), vehicle: saline): 204 % of control

COc1cc(/C=C2\CCOC2=O)cc(/C=C2\CCOC2=O)c1O
T/C (endpoint: mean survival time, dose: 100.0 mg/kg/injection, schedule: Q04DX002 (ip), vehicle: saline with Tween-80): 89 % of control

c1ccc2c(c1)Nc1ccncc1S2
T/C (endpoint: mean survival time, dose: 100.0 mg/kg/injection, schedule: Q01DX009 (ip), vehicle: saline with Tween-80): 95 % of control | T/C (endpoint: mean survival time, dose: 200.0 mg/kg/injection, schedule: Q01DX009 (ip), vehicle: saline with Tween-80): 90 % of control | T/C (endpoint: mean survival time, dose: 400.0 mg/kg/injection, schedule: Q01DX009 (ip), vehicle: saline with Tween-80): 101 % of control
